According to the supplement of paper PMC4862054:
Where “and” joins values, the source holds several entries; their conditions need not be identical. Equal entries are not always repeated.

Columns and labels:
Details in all cases: incubation time: 72 h
[1] = tested on: BT-474; test: drug sensitivity score (DSS), CellTiter-Glo (DSS (AUC-based score)); higher = stronger drug effect (viability inhibition or cytotoxicity); extreme values may be limits of the assay
In short: (§1)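 Normalisation on every plate relied on 0.1 % DMSO and a positive kill control. The plates, 384-well format, held compound at 5 concentrations 10-fold apart across a compound-specific 10,000-fold range, and breast cancer cell lines in 20 µl suspension were incubated on them for 72 h before CellTox Green and then CellTiter-Glo readings. The drug sensitivity score derives from the area under the fitted dose-response curve.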

[2] = tested on: BT-549; test: as above
In short: as §1

[3] = tested on: CAL-120; test: as above
In short: as §1

[4] = tested on: CAL-148; test: as above
In short: as §1

[5] = tested on: CAL-51; test: as above
In short: as §1

[6] = tested on: CAL-85-1; test: as above
In short: as §1

[7] = tested on: DU-4475; test: as above
In short: as §1

[8] = tested on: HCC1143; test: as above
In short: as §1

[9] = tested on: HCC1599; test: as above
In short: as §1

[10] = tested on: HCC1937; test: as above
In short: as §1

[11] = tested on: HDQ-P1; test: as above
In short: as §1

[12] = tested on: Hs578T; test: as above
In short: as §1

[13] = tested on: MCF-10A; test: as above
In short: as §1

[14] = tested on: MDA-MB-231; test: as above
In short: as §1

[15] = tested on: MDA-MB-436; test: as above
In short: as §1

[16] = tested on: MDA-MB-453; test: as above
In short: as §1

[17] = tested on: MDA-MB-468; test: as above
In short: as §1

[18] = tested on: MFM-223; test: as above
In short: as §1

[19] = tested on: SK-BR-3; test: as above
In short: as §1

[20] = tested on: CAL-120; test: normalised viability (% of control), CellTiter-Blue; higher = more viable cells (about 100 = DMSO control)
In short: (§2)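 Each value is normalised viability at a single listed concentration of the series. Breast cancer cell lines in 384-well plates were incubated 72 h with compound and read by CellTiter-Blue fluorescence at 560/590 nm, with vehicle set to 100 and a positive kill control to 0 on every plate.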

[21] = tested on: CAL-85-1; test: as above
In short: as §2

[22] = tested on: DU-4475; test: as above
In short: as §2

[23] = tested on: HDQ-P1; test: as above
In short: as §2

[24] = tested on: Hs578T; test: as above
In short: as §2

[25] = tested on: MDA-MB-468; test: as above
In short: as §2

[26] = tested on: MFM-223; test: as above
In short: as §2

[27] = tested on: SK-BR-3; test: as above
In short: as §2

Row | SMILES | drug sensitivity score [1] | drug sensitivity score [2] | drug sensitivity score [3] | drug sensitivity score [4] | drug sensitivity score [5] | drug sensitivity score [6] | drug sensitivity score [7] | drug sensitivity score [8] | drug sensitivity score [9] | drug sensitivity score [10] | drug sensitivity score [11] | drug sensitivity score [12] | drug sensitivity score [13] | drug sensitivity score [14] | drug sensitivity score [15] | drug sensitivity score [16] | drug sensitivity score [17] | drug sensitivity score [18] | drug sensitivity score [19] | normalised viability ([20]; 10 nM) [%] | other results
1 | Nc1ncnc2c1c(COc1cccc(Cl)c1)nn2C1CCOCC1 | 0 | 0.519 | 0 | 0 | 0 | 0 | 0 | 0 | 0 | 0 | 0 | 0 | 0 | 0 | 0 | 0 | 0 | 0 | 0 |  | 
2 | COc1ccc(-c2ccc3c(N4CCOC[C@@H]4C)nc(N4CCOC[C@@H]4C)nc3n2)cc1CO [AZD8055] | 13.7 | 23.9 | 23.8 | 22.8 | 23.4 | 22.2 | 16.5 | 20.2 | 5.62 | 14.9 | 20.9 | 20.2 | 19.3 | 16.8 | 18.9 | 22.2 | 22.2 | 23.8 | 30.3 | 91.4 | normalised viability ([21]; 3 nM): 85.1%; normalised viability ([22]; 3 nM): 95.8%; normalised viability ([23]; 3 nM): 83.4%; normalised viability ([24]; 10 nM): 91.1%; normalised viability ([25]; 10 nM): 98.2%; normalised viability ([26]; 10 nM): 71.9%; normalised viability ([27]; 10 nM): 72.5%
3 | C[C@]12CC[C@H](O)CC1=CC[C@@H]1[C@@H]2CC[C@]2(C)C(c3cccnc3)=CC[C@@H]12 [Abiraterone] | 0 | 0 | 0 | 0 | 3.91 | 0 | 0 | 0 | 0 | 0 | 0 | 0 | 0 | 0 | 0 | 0 | 0 | 0 | 0 |  | normalised viability ([20]; 5 nM): 81%; normalised viability ([21]; 1.5 nM): 93.2%; normalised viability ([22]; 1.5 nM): 84.6%; normalised viability ([23]; 1.5 nM): 104%; normalised viability ([24]; 5 nM): 101%; normalised viability ([25]; 5 nM): 105%; normalised viability ([26]; 5 nM): 102%; normalised viability ([27]; 5 nM): 97.7%
4 | CN(C)CCN1C(=O)c2cccc3cc(N)cc(c23)C1=O [Amonafide] | 5.06 | 2.93 | 3.03 | 4.44 | 2.87 | 2.16 | 5.38 | 1.61 | 0.856 | 2.35 | 0 | 2.97 | 2.36 | 3.06 | 2.32 | 0 | 2.59 | 0.47 | 3.61 | 82 | normalised viability ([21]; 3 nM): 91.6%; normalised viability ([22]; 3 nM): 100%; normalised viability ([23]; 3 nM): 98.5%; normalised viability ([24]; 10 nM): 113%; normalised viability ([25]; 10 nM): 105%; normalised viability ([26]; 10 nM): 92.1%; normalised viability ([27]; 10 nM): 99.9%
5 | CC(C)(C#N)c1cc(Cn2cncn2)cc(C(C)(C)C#N)c1 [Anastrozole] | 0 | 0 | 0 | 0 | 0 | 0 | 0 | 0 | 0 | 0 | 0 | 0 | 0 | 0 | 0 | 0 | 0 | 0 | 0 | 84.3 | normalised viability ([21]; 3 nM): 93.4%; normalised viability ([22]; 3 nM): 106%; normalised viability ([23]; 3 nM): 102%; normalised viability ([24]; 10 nM): 99.4%; normalised viability ([25]; 10 nM): 102%; normalised viability ([26]; 10 nM): 96.9%; normalised viability ([27]; 10 nM): 95.1%
6 | CC(C)c1c(C(=O)Nc2ccccc2)c(-c2ccccc2)c(-c2ccc(F)cc2)n1CC[C@@H](O)C[C@@H](O)CC(=O)O [Atorvastatin] | 8.43 | 0 | 4.42 | 0 | 6.03 | 3.85 | 0 | 1.92 | 0 | 1 | 5.79 | 1.59 | 7.2 | 10.1 | 0 | 0.00416 | 4.08 | 0 | 0 |  | 
7 | O=C(O)CCCc1ccc(N(CCCl)CCCl)cc1 [Chlorambucil] | 0 | 0 | 0 | 0 | 0 | 0 | 0 | 0 | 0 | 0 | 0 | 0 | 0 | 0 | 0 | 0 | 0 | 0 | 0 | 104 | normalised viability ([21]; 3 nM): 101%; normalised viability ([22]; 3 nM): 101%; normalised viability ([23]; 3 nM): 114%; normalised viability ([24]; 10 nM): 111%; normalised viability ([25]; 10 nM): 107%; normalised viability ([26]; 10 nM): 95.5%; normalised viability ([27]; 10 nM): 113%
8 | Cn1c(=O)n(-c2ccc(C(C)(C)C#N)cc2)c2c3cc(-c4cnc5ccccc5c4)ccc3ncc21 [Dactolisib] | 9.24 | 18.6 | 17.9 | 14.6 | 16.8 | 15.3 | 11.4 | 12.7 | 2.8 | 9.76 | 10.7 | 14.9 | 9.78 | 11.7 | 11.8 | 14.7 | 13.2 | 13.4 | 16.2 |  | 
9 | CO[C@H]1C[C@@H]2CC[C@@H](C)[C@@](O)(O2)C(=O)C(=O)N2CCCC[C@H]2C(=O)O[C@H]([C@H](C)C[C@@H]2CC[C@@H](OCCO)[C@H](OC)C2)CC(=O)[C@H](C)/C=C(\C)[C@@H](O)[C@@H](OC)C(=O)[C@H](C)C[C@H](C)/C=C/C=C/C=C/1C [Everolimus] | 3.02 | 13 | 8.8 | 13.4 | 9.8 | 10.6 | 6.44 | 8.31 | 0 | 8.95 | 3.41 | 9.44 | 0 | 0 | 5.1 | 10 | 16 | 10.8 | 12.7 |  | normalised viability ([20]; 1 nM): 59.3% and 51.9%; normalised viability ([21]; 0.3 nM): 73.8% and 72%; normalised viability ([22]; 0.3 nM): 86.3% and 104%; normalised viability ([23]; 0.3 nM): 84.7% and 79.8%; normalised viability ([24]; 1 nM): 61% and 59.5%; normalised viability ([25]; 1 nM): 72% and 74.4%; normalised viability ([26]; 1 nM): 55.5% and 51.7%; normalised viability ([27]; 1 nM): 80.9% and 64.3%
10 | CCCCCCCCc1ccc(CCC(N)(CO)CO)cc1 [Fingolimod] | 6.1 | 3.92 | 0 | 1.1 | 4.51 | 5.32 | 0 | 0 | 0.954 | 4.54 | 2.05 | 0 | 5.32 | 6.21 | 3.56 | 5.2 | 5.78 | 1.45 | 5.36 | 91 | normalised viability ([21]; 3 nM): 92.2%; normalised viability ([22]; 3 nM): 103%; normalised viability ([23]; 3 nM): 116%; normalised viability ([24]; 10 nM): 98.1%; normalised viability ([25]; 10 nM): 106%; normalised viability ([26]; 10 nM): 92.5%; normalised viability ([27]; 10 nM): 106%
11 | Cc1cc2c(C(C)C)c(O)c(O)c(C=O)c2c(O)c1-c1c(C)cc2c(C(C)C)c(O)c(O)c(C=O)c2c1O [Gossypol] |  |  |  |  |  |  |  |  |  |  |  |  |  |  |  |  |  |  |  |  | normalised viability ([20]; 100 nM): 109%; normalised viability ([21]; 30 nM): 101%; normalised viability ([22]; 30 nM): 94.1%; normalised viability ([23]; 30 nM): 139%; normalised viability ([24]; 100 nM): 137%; normalised viability ([25]; 100 nM): 101%; normalised viability ([26]; 100 nM): 105%; normalised viability ([27]; 100 nM): 106%
12 | Nc1nc(OCc2cc(Br)cs2)c2[nH]cnc2n1 [Lomeguatrib] | 0 | 0 | 0 | 0 | 0 | 0 | 0 | 0 | 0 | 0 | 0 | 0 | 0 | 0 | 0 | 0 | 0 | 0 | 0 |  | 
13 | Cn1c(=O)n(-c2ccc(C(C)(C)C#N)cc2)c2c3cc(-c4cnc5ccccc5c4)ccc3ncc21 [NVP-BEZ235] |  |  |  |  |  |  |  |  |  |  |  |  |  |  |  |  |  |  |  |  | normalised viability ([20]; 1 nM): 89.8%; normalised viability ([21]; 0.3 nM): 96.6%; normalised viability ([22]; 0.3 nM): 125%; normalised viability ([23]; 0.3 nM): 110%; normalised viability ([24]; 1 nM): 100%; normalised viability ([25]; 1 nM): 102%; normalised viability ([26]; 1 nM): 99.1%; normalised viability ([27]; 1 nM): 105%
14 | COc1ccccc1S(=O)(=O)Nc1ccc2c(c1)CN(C)C(=O)N2 [PFI-1] | 0 | 5.52 | 2.01 | 0 | 3.76 | 3.01 | 0.973 | 0 | 0 | 0 | 0 | 4.98 | 1.98 | 1.83 | 1.33 | 4.63 | 0 | 1.13 | 0 |  | 
15 | NS(=O)(=O)OC[C@@H]1C[C@@H](n2ccc3c(N[C@H]4CCc5ccccc54)ncnc32)C[C@@H]1O [Pevonedistat] | 7.25 | 15.3 | 7.98 | 0 | 22.8 | 11.9 | 22.5 | 8.48 | 14 | 2.78 | 2.51 | 5.18 | 0 | 6.52 | 14.2 | 3.83 | 17.8 | 9.97 | 21.7 |  | 
